Assays:
[1] = tested on: CD4+ CD25− T cells; experiment: DNA microarray transcriptional profile of T cells activated in Th17-priming conditions; assay type: cell-based, mouse; settings: 10 nM
[2] = tested on: CD4+ CD25− T cells; experiment: Quantitative real-time PCR of AAR-associated genes in activated T cells; assay type: cell-based, mouse; settings: 10 nM HF, within 4 hours of T cell activation
Experimental: FIG. 12C is a graph depicting the results of quantitative real-time PCR performed on cDNA generated from resting naïve T cells (TN) or T cells activated for 4 hours in the presence of 10 nM MAZ1310 or 10 nM HF. Asns, Gpt2 or eIF4Ebp1 mRNA expression was normalized to Hprt levels and data are presented as mean values±SD in duplicate samples.
Quantitative real-time PCR: T cells were activated as described above, collected at the indicated times and pellets were flash-frozen in liquid nitrogen. Total RNA was obtained by RNeasy (Quiagen, Valencia, Calif.) column purification per manufacturers instructions. RORγt expression was determined after reverse transcription using the message sensor kit (Ambion, Austin, Tex.) per manufacturers instructions and taqman primers and probe as described elsewhere (I. Ivanov, et al., Cell 126, 1121, 2006). Sybrgreen quantitative real-time PCR was performed on T cell RNA samples following reverse transcription via SuperScript II first-strand cDNA synthesis kit (Invitrogen, Carlsbad, Calif.). All PCR data was collected on an iCycler thermal cycler (Biorad, Hercules, Calif.). Primer sequences used for detecting stress response genes are listed below.

[3] = tested on: dermal fibroblasts; experiment: Spreading and contractile activity of dermal fibroblasts on Type I collagen; assay type: cell-based, human
Experimental: Inhibitors of cellulite formation are also identified by observing the effect of the test compound on fibroblast behavior. In this assay, a control population of primary dermal fibroblasts are cultured in a matrix of Type I collagen, mimicking the interstitial matrix of the dermis and hypodermis, such that the fibroblasts attach to the substratum and spread, exerting contractile force on the surrounding interstitial matrix. In the test population, primary dermal fibroblasts are incubated on a matrix of Type I collagen in the presence of a test compound for a predetermined length of time, e.g., 24 hrs. The ability of the dermal fibroblasts to attach to the substratum and spread is then observed.
An assay is provided to test the effects of HF and other selective Th17 inhibitors on the behavior of cells likely to provide the basis for the structural features of cellulite—dermal fibroblasts and myofibroblasts. When human primary dermal fibroblasts are cultured in a matrix of Type I collagen, mimicking the interstitial matrix of the dermis and hypodermis, they attach to the substratum and spread, exerting contractile force on the surrounding interstitial matrix. […] The ability of the dermal fibroblasts to attach and spread when cultured in the presence of the Th17 inhibitor is detected.

SMILES: O=C(CC1NCCCC1O)Cn1cnc2cc(Br)c(Cl)cc2c1=O (racemic) [HF, 7-bromo-6-chloro-3-[3-(3-hydroxy-2-piperidinyl)-2-oxopropyl]-4(3H)-quinazolinone]
- annotated genes differentially expressed at both time points in HF- versus MAZ1310-treated cells ([1]; 3 and 6 hours): 81
- Aars transcript fold increase, HF vs. MAZ1310 ([1]; 3 hr, Th17-priming conditions): 2.7 ± 0.4 fold
- Aff1 transcript fold increase, HF vs. MAZ1310 ([1]; 3 hr, Th17-priming conditions): 2.3 ± 0.4 fold
- Aldh18a1 transcript fold increase, HF vs. MAZ1310 ([1]; 3 hr, Th17-priming conditions): 2.1 ± 0.5 fold
- Asns transcript fold increase, HF vs. MAZ1310 ([1]; 3 hr, Th17-priming conditions): 6.1 ± 1.2 fold
- Atf3 transcript fold increase, HF vs. MAZ1310 ([1]; 3 hr, Th17-priming conditions): 3.0 ± 0.1 fold
- Atf5 transcript fold increase, HF vs. MAZ1310 ([1]; 3 hr, Th17-priming conditions): 2.4 ± 0.1 fold
- Cars transcript fold increase, HF vs. MAZ1310 ([1]; 3 hr, Th17-priming conditions): 2.2 ± 0.4 fold
- Cd274 transcript fold increase, HF vs. MAZ1310 ([1]; 3 hr, Th17-priming conditions): 2.1 ± 0.2 fold
- Cebpb transcript fold increase, HF vs. MAZ1310 ([1]; 3 hr, Th17-priming conditions): 3.9 ± 0.5 fold
- Cebpg transcript fold increase, HF vs. MAZ1310 ([1]; 3 hr, Th17-priming conditions): 2.5 ± 0.5 fold
- Chd2 transcript fold increase, HF vs. MAZ1310 ([1]; 3 hr, Th17-priming conditions): 2.2 ± 0.3 fold
- Cldn12 transcript fold increase, HF vs. MAZ1310 ([1]; 3 hr, Th17-priming conditions): 3.2 ± 0.7 fold
- Clic4 transcript fold increase, HF vs. MAZ1310 ([1]; 3 hr, Th17-priming conditions): 2.4 ± 0.2 fold
- Cth transcript fold increase, HF vs. MAZ1310 ([1]; 3 hr, Th17-priming conditions): 2.2 ± 0.7 fold
- Cxcl10 transcript fold increase, HF vs. MAZ1310 ([1]; 3 hr, Th17-priming conditions): 2.1 ± 0.3 fold
- D8Ertd56e transcript fold increase, HF vs. MAZ1310 ([1]; 3 hr, Th17-priming conditions): 2.1 ± 0.3 fold
- Ddit3 transcript fold increase, HF vs. MAZ1310 ([1]; 3 hr, Th17-priming conditions): 5.6 ± 1.1 fold
- Eif4Ebp1 transcript fold increase, HF vs. MAZ1310 ([1]; 3 hr, Th17-priming conditions): 6.8 ± 1.8 fold
- Gpt2 transcript fold increase, HF vs. MAZ1310 ([1]; 3 hr, Th17-priming conditions): 10.0 ± 1.2 fold
- Herpud1 transcript fold increase, HF vs. MAZ1310 ([1]; 3 hr, Th17-priming conditions): 2.4 ± 0.3 fold
- Icam1 transcript fold increase, HF vs. MAZ1310 ([1]; 3 hr, Th17-priming conditions): 2.0 ± 0.1 fold
- Irf1 transcript fold increase, HF vs. MAZ1310 ([1]; 3 hr, Th17-priming conditions): 2.0 ± 0.3 fold
- Lars transcript fold increase, HF vs. MAZ1310 ([1]; 3 hr, Th17-priming conditions): 2.3 ± 0.3 fold
- Mpa2l transcript fold increase, HF vs. MAZ1310 ([1]; 3 hr, Th17-priming conditions): 2.3 ± 0.3 fold
- Ncoa7 transcript fold increase, HF vs. MAZ1310 ([1]; 3 hr, Th17-priming conditions): 3.0 ± 0.3 fold
- Nfkbiz transcript fold increase, HF vs. MAZ1310 ([1]; 3 hr, Th17-priming conditions): 2.0 ± 0.3 fold
- Pck2 transcript fold increase, HF vs. MAZ1310 ([1]; 3 hr, Th17-priming conditions): 4.9 ± 0.8 fold
- Pdcd1lg2 transcript fold increase, HF vs. MAZ1310 ([1]; 3 hr, Th17-priming conditions): 3.2 ± 0.7 fold
- Phgdh transcript fold increase, HF vs. MAZ1310 ([1]; 3 hr, Th17-priming conditions): 3.8 ± 0.9 fold
- Psat1 transcript fold increase, HF vs. MAZ1310 ([1]; 3 hr, Th17-priming conditions): 2.1 ± 0.5 fold
- Psph transcript fold increase, HF vs. MAZ1310 ([1]; 3 hr, Th17-priming conditions): 3.5 ± 0.4 fold
- Pvr transcript fold increase, HF vs. MAZ1310 ([1]; 3 hr, Th17-priming conditions): 2.0 ± 0.3 fold
- Pycr1 transcript fold increase, HF vs. MAZ1310 ([1]; 3 hr, Th17-priming conditions): 4.6 ± 0.7 fold
- Pycs transcript fold increase, HF vs. MAZ1310 ([1]; 3 hr, Th17-priming conditions): 2.1 ± 0.2 fold
- Sars1 transcript fold increase, HF vs. MAZ1310 ([1]; 3 hr, Th17-priming conditions): 2.0 ± 0.3 fold
- Sesn2 transcript fold increase, HF vs. MAZ1310 ([1]; 3 hr, Th17-priming conditions): 2.6 ± 0.3 fold
- Slamf7 transcript fold increase, HF vs. MAZ1310 ([1]; 3 hr, Th17-priming conditions): 2.2 ± 0.4 fold
- Slc1a4 transcript fold increase, HF vs. MAZ1310 ([1]; 3 hr, Th17-priming conditions): 3.2 ± 0.9 fold
- Slc5a9 transcript fold increase, HF vs. MAZ1310 ([1]; 3 hr, Th17-priming conditions): 2.4 ± 0.3 fold
- Slc7a3 transcript fold increase, HF vs. MAZ1310 ([1]; 3 hr, Th17-priming conditions): 2.0 ± 0.2 fold
- Slc14a1 transcript fold increase, HF vs. MAZ1310 ([1]; 3 hr, Th17-priming conditions): 2.0 ± 0.1 fold
- Trib3 transcript fold increase, HF vs. MAZ1310 ([1]; 3 hr, Th17-priming conditions): 7.1 ± 2.0 fold
- Trim12 transcript fold increase, HF vs. MAZ1310 ([1]; 3 hr, Th17-priming conditions): 2.4 ± 0.1 fold
- Vegfa transcript fold increase, HF vs. MAZ1310 ([1]; 3 hr, Th17-priming conditions): 3.2 ± 0.2 fold
- Xist transcript fold increase, HF vs. MAZ1310 ([1]; 3 hr, Th17-priming conditions): 3.5 ± 1.7 fold
- Aars transcript fold increase, HF vs. MAZ1310 ([1]; 6 hr, Th17-priming conditions): 2.6 ± 0.2 fold
- Aff1 transcript fold increase, HF vs. MAZ1310 ([1]; 6 hr, Th17-priming conditions): 2.6 ± 0.3 fold
- Aldh18a1 transcript fold increase, HF vs. MAZ1310 ([1]; 6 hr, Th17-priming conditions): 2.7 ± 0.2 fold
- Asns transcript fold increase, HF vs. MAZ1310 ([1]; 6 hr, Th17-priming conditions): 7.1 ± 0.5 fold
- Atf3 transcript fold increase, HF vs. MAZ1310 ([1]; 6 hr, Th17-priming conditions): 3.2 ± 0.5 fold
- Atf5 transcript fold increase, HF vs. MAZ1310 ([1]; 6 hr, Th17-priming conditions): 8.9 ± 1.0 fold
- Cars transcript fold increase, HF vs. MAZ1310 ([1]; 6 hr, Th17-priming conditions): 2.2 ± 0.3 fold
- Cd274 transcript fold increase, HF vs. MAZ1310 ([1]; 6 hr, Th17-priming conditions): 2.0 ± 0.1 fold
- Cebpb transcript fold increase, HF vs. MAZ1310 ([1]; 6 hr, Th17-priming conditions): 8.0 ± 0.2 fold
- Cebpg transcript fold increase, HF vs. MAZ1310 ([1]; 6 hr, Th17-priming conditions): 3.1 ± 0.5 fold
- Chd2 transcript fold increase, HF vs. MAZ1310 ([1]; 6 hr, Th17-priming conditions): 2.5 ± 0.5 fold
- Cldn12 transcript fold increase, HF vs. MAZ1310 ([1]; 6 hr, Th17-priming conditions): 4.6 ± 0.5 fold
- Clic4 transcript fold increase, HF vs. MAZ1310 ([1]; 6 hr, Th17-priming conditions): 2.8 ± 0.2 fold
- Cth transcript fold increase, HF vs. MAZ1310 ([1]; 6 hr, Th17-priming conditions): 16.0 ± 1.6 fold
- Cxcl10 transcript fold increase, HF vs. MAZ1310 ([1]; 6 hr, Th17-priming conditions): 2.1 ± 0.1 fold
- Ddit3 transcript fold increase, HF vs. MAZ1310 ([1]; 6 hr, Th17-priming conditions): 5.0 ± 0.7 fold
- Eif4Ebp1 transcript fold increase, HF vs. MAZ1310 ([1]; 6 hr, Th17-priming conditions): 5.3 ± 0.3 fold
- Gpt2 transcript fold increase, HF vs. MAZ1310 ([1]; 6 hr, Th17-priming conditions): 16.7 ± 2.2 fold
- Herpud1 transcript fold increase, HF vs. MAZ1310 ([1]; 6 hr, Th17-priming conditions): 2.7 ± 0.1 fold
- Icam1 transcript fold increase, HF vs. MAZ1310 ([1]; 6 hr, Th17-priming conditions): 2.8 ± 0.3 fold
- Irf1 transcript fold increase, HF vs. MAZ1310 ([1]; 6 hr, Th17-priming conditions): 2.6 ± 0.2 fold
- Lars transcript fold increase, HF vs. MAZ1310 ([1]; 6 hr, Th17-priming conditions): 2.1 ± 0.0 fold
- Mpa2l transcript fold increase, HF vs. MAZ1310 ([1]; 6 hr, Th17-priming conditions): 7.3 ± 1.7 fold
- Ncoa7 transcript fold increase, HF vs. MAZ1310 ([1]; 6 hr, Th17-priming conditions): 3.2 ± 0.5 fold
- Nfkbiz transcript fold increase, HF vs. MAZ1310 ([1]; 6 hr, Th17-priming conditions): 1.9 ± 0.3 fold
- Pck2 transcript fold increase, HF vs. MAZ1310 ([1]; 6 hr, Th17-priming conditions): 7.4 ± 0.9 fold
- Pdcd1lg2 transcript fold increase, HF vs. MAZ1310 ([1]; 6 hr, Th17-priming conditions): 2.5 ± 0.3 fold
- Phgdh transcript fold increase, HF vs. MAZ1310 ([1]; 6 hr, Th17-priming conditions): 4.2 ± 0.3 fold
- Psat1 transcript fold increase, HF vs. MAZ1310 ([1]; 6 hr, Th17-priming conditions): 2.6 ± 0.0 fold
- Psph transcript fold increase, HF vs. MAZ1310 ([1]; 6 hr, Th17-priming conditions): 3.4 ± 0.3 fold
- Pvr transcript fold increase, HF vs. MAZ1310 ([1]; 6 hr, Th17-priming conditions): 2.0 ± 0.1 fold
- Pycr1 transcript fold increase, HF vs. MAZ1310 ([1]; 6 hr, Th17-priming conditions): 6.6 ± 0.4 fold
- Pycs transcript fold increase, HF vs. MAZ1310 ([1]; 6 hr, Th17-priming conditions): 2.3 ± 0.1 fold
- Sars1 transcript fold increase, HF vs. MAZ1310 ([1]; 6 hr, Th17-priming conditions): 2.3 ± 0.1 fold
- Sesn2 transcript fold increase, HF vs. MAZ1310 ([1]; 6 hr, Th17-priming conditions): 2.3 ± 0.2 fold
- Slamf7 transcript fold increase, HF vs. MAZ1310 ([1]; 6 hr, Th17-priming conditions): 2.1 ± 0.2 fold
- Slc1a4 transcript fold increase, HF vs. MAZ1310 ([1]; 6 hr, Th17-priming conditions): 4.6 ± 0.4 fold
- Slc5a9 transcript fold increase, HF vs. MAZ1310 ([1]; 6 hr, Th17-priming conditions): 5.7 ± 0.6 fold
- Slc7a3 transcript fold increase, HF vs. MAZ1310 ([1]; 6 hr, Th17-priming conditions): 6.5 ± 0.9 fold
- Slc14a1 transcript fold increase, HF vs. MAZ1310 ([1]; 6 hr, Th17-priming conditions): 6.6 ± 0.4 fold
- Trib3 transcript fold increase, HF vs. MAZ1310 ([1]; 6 hr, Th17-priming conditions): 18.5 ± 8.5 fold
- Trim12 transcript fold increase, HF vs. MAZ1310 ([1]; 6 hr, Th17-priming conditions): 4.9 ± 0.7 fold
- Vegfa transcript fold increase, HF vs. MAZ1310 ([1]; 6 hr, Th17-priming conditions): 5.8 ± 0.5 fold
- Xist transcript fold increase, HF vs. MAZ1310 ([1]; 6 hr, Th17-priming conditions): 2.1 ± 0.7 fold
- AAR-associated genes (Asns, Gpt2, eIF4Ebp1) mRNA by qPCR [2]: induced
- spreading and contractile activity of dermal fibroblasts [3]: prevents the spreading and contractile activity
